Earlier results in US6235268A, “Antiplaque oral composition and method” (Colgate-Palmolive Company, priority 2000, dated 2001).

Test system: rats
Conditions: Merck Index, Eleventh Ed., 1989

COc1ccc(C(=O)c2ccccc2)c(O)c1 [2-hydroxy-4-methoxybenzophenone]
LD-50 (oral/rats): 12800 mg/kg
